According to US20100249402A1, “NOVEL BENZAMIDINE DERIVATIVES, PROCESS FOR THE PREPARATION THEREOF AND PHARMACEUTICAL COMPOSITION FOR PREVENTING OR TREATING OSTEPOROSIS COMPRISING THE SAME” (DONG WHA PHARMACEUTICAL CO. LTD., priority 2007, published 2010):
Read-outs that look alike come from different tables or passages of the source.

Legend:
calvaria = assay: Cytotoxicity test (MTT), calvaria; assay type: cell-based; settings: 10^−6 M, cultured for 72 hrs, in comparison with the control group
Experimental: (§1) The cytotoxic effect of the benzamidine derivative of the present invention was evaluated by carrying out the experiment described below.
(§2) The test substance was diluted in an appropriate solvent at a concentration of 10^−2 M. This substance was diluted in an appropriate culture medium for the cells used in the cytotoxicity test to a concentration of 10^−6M, and loaded into a 96-well plate in 100 μl per well. The cell lines to be used in the cytotoxicity test were plated on a 96-well plate in a dose of 1.0×10^4 cell/100 μl per well, and cultured for 72 hrs. 25 μl of MTT[3-(4,5-dimethyl-2-thiazolyl)-2,5-diphenyl-2H-tetrazolium bromide] dissolved in PBS (2 mg/mL) were added before 4 hrs of the end of culture. After completion of the reaction, the plates were centrifuged, the medium was discarded and 100 μl of DMSO was added to dissolve formazan. Finally, the absorbance of the developed plates was measured at 540 nm. The survival rates of the cells were expressed as % concentration values in comparison with the control group.

MC3T3-E1 = assay: Cytotoxicity test (MTT), MC3T3-E1; assay type: cell-based; settings: 10^−6 M, cultured for 72 hrs, in comparison with the control group
Experimental: as §1, §2

[1] = test system: osteoclast differentiation; assay: Inhibitory effects on osteoclast differentiation (bone marrow cell/osteoblast co-culture, TRAP staining); assay type: cell-based, mice; settings: Mus musculus, Osteoclast, 168 h, read-out: Inhibition of osteoclast differentiation (%)
Experimental: The effect of the benzamidine derivative of the present invention on osteoclast formation and differentiation process was evaluated via co-culture with an osteoblast.
Tibia was aseptically ectomized from 6 to 8-week-old male ddY mice to harvest bone marrow cells by using a syringe (21G, Korea Green Cross). The bone marrow cells were suspended in 5 mL of an α-MEM medium (Gibco BRL Co., supplemented with sodium bicarbonate (2.0 g/L), streptomycin (100 mg/L) and penicillin ([…]), filtered and then sterilized). The harvested cells were centrifuged at 600×g for 5 minutes to collect the whole quantity. To remove the red blood cells in the bone marrow cells, 3 mL of Tris HCl (0.83% NH4Cl, pH 7.5) was added and well mixed. After centrifugation, the numbers of the eukaryotic cells in the harvested bone marrow cells were counted, and then immediately used for a co-culture system.
The progenitor bone and the parietal bone were aseptically ectomized from 1 to 2-day-old neonatal ICR mice, washed with a phosphate butter solution (PBS), and treated with a mixed enzyme solution (0.2% collagenase and 0.1% dispase) six to seven times (10, 10, 10, 20, 20 and 20 min), and then 3 to 6 groups of the cells, in which a large volume of cells having osteoblastic characteristics were contained, were intensively collected, and washed with medium (serum-free α-MEM). The washed cells were cultured in the α-MEM medium containing 10% FBS for 2 to 3 days. After sub-culturing, the collected cells were used for this experiment, and diluted to a concentration of 1×10^6 cells/mL for storage at −70° C.
The benzamidine derivative of the present invention was dissolved in a sterile distilled water or ethanol to be diluted to a desired concentration. The final volume of the sample added to the cell culture medium was set at a ratio of 1:1000.
The bone marrow cells prepared in the above 1-1 and the osteoblast were co-cultured. Both the bone marrow cells (25,000 cells/cm^2) and the osteoblast (10,000 cells/cm^2) were plated in a 96-well plate using α-MEM medium containing FBS, and then cultured with the samples to be tested for 7 days. Differentiation factors, such as dexamethasone (10^−7 M) and vitamin D (10^−8 M), were also co-added to the medium from the first day of cultivation. The medium was changed with a fresh media containing a mixture of the samples and the differentiation factors every 2 to 3 days.
TRAP was used as a marker to measure the matured osteoclast in consideration of its characteristics showing a positive reaction to a TRAP staining solution.
The TRAP staining solution was prepared in such the manner that 5 mg of naphthol AS-MS phosphate (sigma N-4875) as a substrate and 25 mg of a coloring agent (Fast Red Violet LB salt) were dissolved in N,N-dimethylformamide (about 0.5 mL). 50 ml of a 0.1 N […] buffer solution containing 50 mM tartaric acid (pH 5.0) was added thereto, and the mixture was stored in a refrigerator prior to use as a staining solution.
After culturing the cells for 7 days, the medium was removed from the wells, the cells were once washed with PBS, and then fixed with PBS containing 10% formalin for 2 to 5 min. The cells were fixed again in a mixed solution of ethanol and acetone (1/1) for about 1 min, and dried off. The cells were further treated by the TRAP staining solution for 15 minutes, and washed with water and dried off. The osteoclasts with 3 or more nuclei showing a TRAP-positive reaction were counted under a microscopic examination. Each of tests was confirmed at least three times. The inhibitory effect on osteoclast differentiation of each experimental group, relative to negative controls, was expressed as a percentage (%).

HOS = assay: Cytotoxicity test (MTT), HOS; assay type: cell-based; settings: 10^−6 M, cultured for 72 hrs, in comparison with the control group
Experimental: as §1, §2

[2] = 1 μm, 7 days co-culture, TRAP-positive osteoclasts with 3 or more nuclei, relative to negative controls

SMILES: Cc1nc(-c2ccc(OCCCCCOc3ccc(C(=N)NO)cc3)cc2)c(CN2CCCC2)s1 [Example 19, N-hydroxy-4-{5-[4-(2-methyl-5-pyrrolidin-1-ylmethyl-thiazol-4-yl)-phenoxy]-pentyloxy}-benzamidine]
- Cell survival rate (calvaria): 97%
- Cell survival rate (MC3T3-E1): 103%
- inhibition at 1 µM [1, 2]: 100%
- Cell survival rate (HOS): 90%

SMILES: Cc1nc(-c2ccc(OCCCCCOc3ccc(C(=N)NO)cc3)cc2)c(CN(C)C)s1 [Example 12, N-hydroxy-4-{5-[4-(5-dimethylaminomethyl-2-methyl-thiazol-4-yl)-phenoxy]-pentyloxy}-benzamidine]
- Cell survival rate (calvaria): 95.6%
- Cell survival rate (MC3T3-E1): 98.8%
- inhibition at 1 µM [1]: 64.9%
- Cell survival rate (HOS): 107.5%

SMILES: CNc1nc(-c2ccc(OCCCCCOc3ccc(C(=N)NO)cc3)cc2)c(CN2CCOCC2)s1 [Example 50, N-hydroxy-4-{5-[4-(2-methylamino-5-morpholin-4-ylmethyl-thiazol-4-yl)-phenoxy]-pentyloxy}-benzamidine]
- Cell survival rate (calvaria): 90%
- Cell survival rate (MC3T3-E1): 91%
- inhibition at 1 µM [1, 2]: 100%
- Cell survival rate (HOS): 102%

SMILES: CCCCNCc1sc(C)nc1-c1ccc(OCCCCCOc2ccc(C(=N)NO)cc2)cc1 [Example 13, N-hydroxy-4-{5-[4-(5-butylaminomethyl-2-methyl-thiazol-4-yl)-phenoxy]-pentyloxy}-benzamidine]
- Cell survival rate (calvaria): 96%
- Cell survival rate (MC3T3-E1): 93%
- inhibition at 1 µM [1, 2]: 100%
- Cell survival rate (HOS): 106%

SMILES: CN1CCN(c2sc(N3CCOCC3)nc2-c2ccc(OCCCCCOc3ccc(C(=N)NO)cc3)cc2)CC1 [Example 4, N-hydroxy-4-(5-{4-[5-(4-methyl-piperazin-1-yl)-2-morpholin-4-yl-thiazol-4-yl]-phenoxy}-pentyloxy)-benzamidine]
- Cell survival rate (calvaria): 93%
- Cell survival rate (MC3T3-E1): 89%
- inhibition at 1 µM [1]: 100%
- Cell survival rate (HOS): 104%

SMILES: N=C(NO)c1ccc(OCCCCCOc2ccc(-c3nc(N4CCOCC4)sc3N3CCOCC3)cc2)cc1 [Example 5, N-hydroxy-4-{5-[4-(2,5-di-morpholin-4-yl-thiazol-4-yl)-phenoxy]-pentyloxy}-benzamidine]
- Cell survival rate (calvaria): 98%
- Cell survival rate (MC3T3-E1): 93%
- inhibition at 1 µM [1, 2]: 98%
- Cell survival rate (HOS): 100%

SMILES: CNc1sc(C)nc1-c1ccc(OCCCCCOc2ccc(C(=N)NO)cc2)cc1 [Example 37, N-hydroxy-4-{5-[4-(2-methyl-5-methylamino-thiazol-4-yl)-phenoxy]-pentyloxy}-benzamidine]
- Cell survival rate (calvaria): 92.5%
- Cell survival rate (MC3T3-E1): 94.3%
- inhibition at 1 µM [1, 2]: 83.3%
- Cell survival rate (HOS): 105.3%

SMILES: CN(Cc1ccncc1)c1nc(-c2ccc(OCCCCCOc3ccc(C(=N)NO)cc3)cc2)c(CN2CCOCC2)s1 [Example 24, N-hydroxy-4-(5-{4-[2-(methyl-pyridin-4-ylmethyl-amino)-5-morpholin-4-ylmethyl-thiazol-4-yl]-phenoxy}-pentyloxy)-benzamidine]
- Cell survival rate (calvaria): 95%
- Cell survival rate (MC3T3-E1): 86%
- inhibition at 1 µM [1]: 100%
- Cell survival rate (HOS): 112%

SMILES: Cc1nc(-c2ccc(OCCCCCOc3ccc(C(=N)NO)cc3)cc2)c(NC(=O)c2ccncc2)s1 [Example 38, N-hydroxy-4-[5-(4-{2-methyl-5-[(pyridine-4-carbonyl)-amino]-thiazol-4-yl}-phenoxy)-pentyloxy]-benzamidine]
- Cell survival rate (calvaria): 94.6%
- Cell survival rate (MC3T3-E1): 100.0%
- inhibition at 1 µM [1, 2]: 78.6%
- Cell survival rate (HOS): 117.6%

SMILES: Cc1nc(-c2ccc(OCCCCCOc3ccc(C(=N)NO)cc3)cc2)c(N2CCN(C)CC2)s1 [Example 2, N-hydroxy-4-(5-{4-[2-methyl-5-(4-methyl-piperazin-1-yl)-thiazol-4-yl]-phenoxy}-pentyloxy)-benzamidine]
- Cell survival rate (calvaria): 87.9%
- Cell survival rate (MC3T3-E1): 91.8%
- inhibition at 1 µM [1, 2]: 78.6%
- Cell survival rate (HOS): 107.0%

SMILES: CC(C)NCc1sc(N(C)CCN2CCOCC2)nc1-c1ccc(OCCCCCOc2ccc(C(=N)NO)cc2)cc1 [Example 32, N-hydroxy-4-[5-(4-{5-(isopropylamino-methyl)-2-[methyl-(2-morpholin-4-yl-ethyl)-amino]-thiazol-4-yl}-phenoxy)-pentyloxy]-benzamidine]
- Cell survival rate (calvaria): 98%
- Cell survival rate (MC3T3-E1): 104%
- inhibition at 1 µM [1, 2]: 100%
- Cell survival rate (HOS): 106%

SMILES: Cc1nc(-c2ccc(OCCCCCOc3ccc(C(=N)NO)cc3)cc2)c(N)s1 [Example 46, N-hydroxy-4-{5-[4-(5-amino-2-methyl-thiazol-4-yl)-phenoxy]-pentyloxy}-benzamidine]
- Cell survival rate (calvaria): 95%
- Cell survival rate (MC3T3-E1): 90%
- inhibition at 1 µM [1, 2]: 88%
- Cell survival rate (HOS): 106%

SMILES: Cc1nc(-c2ccc(OCCCCCOc3ccc(C(=N)NO)cc3)cc2)c(CNC(C)(C)C)s1 [Example 15, N-hydroxy-4-(5-{4-[5-(tert-butylamino-methyl)-2-methyl-thiazol-4-yl]-phenoxy}-pentyloxy)-benzamidine]
- Cell survival rate (calvaria): 105%
- Cell survival rate (MC3T3-E1): 99%
- inhibition at 1 µM [1]: 100%
- Cell survival rate (HOS): 98%

SMILES: N=C(NO)c1ccc(OCCCCCOc2ccc(-c3nc(N4CCOCC4)sc3N3CCCC3)cc2)cc1 [Example 7, N-hydroxy-4-{5-[4-(2-morpholin-4-yl-5-pyrrolidin-1-yl-thiazol-4-yl)-phenoxy]-pentyloxy}-benzamidine]
- Cell survival rate (calvaria): 101%
- Cell survival rate (MC3T3-E1): 99%
- inhibition at 1 µM [1]: 58%
- Cell survival rate (HOS): 92%

SMILES: Cc1nc(-c2ccc(OCCCCCOc3ccc(C(=N)NO)cc3)cc2)c(CN2CCSCC2)s1 [Example 10, N-hydroxy-4-{5-[4-(2-methyl-5-thiomorpholin-4-ylmethyl-thiazol-4-yl)-phenoxy]-pentyloxy}-benzamidine]
- Cell survival rate (calvaria): 94.5%
- Cell survival rate (MC3T3-E1): 93.4%
- inhibition at 1 µM [1]: 92.9%
- Cell survival rate (HOS): 101%

SMILES: CNc1nc(-c2ccc(OCCCCCOc3ccc(C(=N)NO)cc3)cc2)c(N2CCOCC2)s1 [Example 23, N-hydroxy-4-{5-[4-(2-methylamino-5-morpholin-4-yl-thiazol-4-yl)-phenoxy]-pentyloxy}-benzamidine]
- Cell survival rate (calvaria): 95.8%
- Cell survival rate (MC3T3-E1): 92.0%
- inhibition at 1 µM [1, 2]: 58.9%
- Cell survival rate (HOS): 104.0%

SMILES: Cc1nc(-c2ccc(OCCCCCOc3ccc(C(=N)NO)cc3)cc2)c(-n2cncn2)s1 [Example 44, N-hydroxy-4-{5-[4-(2-methyl-5-[1,2,4]triazol-1-yl-thiazol-4-yl)-phenoxy]-pentyloxy}-benzamidine]
- inhibition at 1 µM [1, 2]: 68%
